Test results reported in paper PMC2668518 (Bioconjugate chemistry, 2009).

Test: Biodistribution of radiolabeled closo-borate
Type: in vivo, Male athymic mice (nu/nu)
Details: mice; for tissue(s) with the highest concentration of radionuclide: 1 and 4 h pi; for route of excretion: inferred from tissue distribution at 1 and 4 h pi; for concentration in kidney: injected via lateral tail vein; for concentration in urine: 1 h pi, urine at sacrifice

In the case of “[Et3NH]2B12H10At-CONHpropyl [[^211At]2c]”, the “tissue(s) with the highest concentration of radionuclide” value (“tissue(s)” below) is reported as “kidney” and the route of excretion is reported as “kidney”.

For [Et3NH]2B12H10I-CONHpropyl [[^125I]2b], the “tissue(s)” value was “kidney”, the route of excretion was “kidney” and the concentration in kidney (1 h post injection) was 19.8 %ID/g. It also gave a concentration in kidney (4 h post injection) of 26.5 %ID/g.

In the case of [Et3NH]2B10H8I-CONHpropyl [[^125I]1e], the “tissue(s)” value is reported as “kidney”, the concentration in urine is reported as 320 ± 135 %ID/g and the route of excretion is reported as “renal clearance”. The concentration in kidney (1 h post injection) was 6.6 %ID/g and the concentration in kidney (4 h post injection) was 0.27 %ID/g.

In the case of [nBu4N]2B10H8I-CONHpropyl [[^125I]1b], the “tissue(s)” value is reported as “liver and intestines”, the concentration in urine is reported as 174.43 ± 90.33 %ID/g and the route of excretion is reported as “hepatobiliary rather than renal”.

For [nBu4N]2B10H8At-CONHpropyl [[^211At]1c], the “tissue(s)” value was “liver and intestines” and the concentration in urine was 33.11 ± 14.06 %ID/g.
